What is called MIC is the smallest concentration in the dilution series that meets the test's criterion for growth inhibition.

The record followed here is ChEMBL document CHEMBL5214910, “Rational Design of Dipicolylamine-Containing Carbazole Amphiphiles Combined with Zn2+ as Potent Broad-Spectrum Antibacterial Agents with a Membrane-Disruptive Mechanism” (J Med Chem, 2021).

In assay [1] the test system is Pseudomonas aeruginosa. The assay is described as follows: Antibacterial activity Pseudomonas aeruginosa ATCC 9027 assessed as inhibition of bacterial growth incubated for 24 hrs in the presence of 50 ug/mL Zn2+ by Muller hinton broth based dilution assay. The format is functional.
The test system of assay [2] is Staphylococcus aureus. The assay is described as follows: Antibacterial activity against Staphylococcus aureus ATCC 29213 assessed as log reduction in bacterial count at 4 times of MIC incubated for 1 hrs in the presence of 12.5 ug/ml Zn2+ by Muller hinton agar based time kill assay. Type of assay: functional.
The test system of assay [3] is Cell membrane. The assay is described as follows: Disruption of cell membrane integrity in Escherichia coli ATCC 25922 assessed as increase in fluorescence intensity at 2 times to 8 times of MIC measured for 1 hrs in the presence of 12.5 ug/ml Zn2+ by SYTOX green dye based assay. The settings on record: DDE = dose-dependent effect. The format is subcellular.
For assay [4], the system named is Staphylococcus aureus. The assay is described as follows: Antibacterial activity against Methicillin-resistant Staphylococcus aureus NCTC10442 assessed as inhibition of bacterial growth incubated for 24 hrs in the presence of 0.39 ug/mL Zn2+ by Muller hinton broth based dilution assay. Type of assay: functional.

Take `CC(C)=CCn1c2ccccc2c2c(OCC(O)CN(Cc3ccccn3)Cc3ccccn3)cccc21` (centres undefined): the MIC came to 3.12 µg/mL in assay [1] and 1.56 µg/mL in assay [4]. The “log(activity)” value in assay [2] is 3.03. In addition, the Activity result in assay [3] was “Dde”.
